# Values quoted from earlier work in patent US20170143824A1 (Teva Pharmaceutical Industries, Ltd., priority 2013, published 2017).
# Tested on: patients with RRMS
# Conditions: registration trials, compared with placebo
substance,measurement,value
"L-glutamic acid polymer with L-alanine, L-lysine, L-tyrosine, acetate (salt) [glatiramer acetate]",reduction of relapse rate,about one third
